Measured values from patent publication US20150005347A1, “NITROGEN-CONTAINING HETEROCYCLIC DERIVATIVE HAVING 2-IMINO GROUP AND PEST CONTROL AGENT INCLUDING THE SAME” (MEIJI SEIKA PHARMA CO., LTD., priority 2012, published 2015).
Read-outs that look alike come from different tables or passages of the source.

Tests used:
Assay type in all cases: in vivo
Plutella xylostella = Plutella xylostella control test, cabbage leaf disk foliar spray; details: for % Mortality, Test Example1 Plutella xylostella: foliar treatment
Method: Test Example 1 Plutella xylostella Control Test
(§1) A leaf disk having a diameter of 5.0 cm was cut out from a cabbage in pot culture, and a drug solution of the compound of the present invention at a predetermined concentration, which had been prepared so as to be a 50% acetone water (0.05% Tween20 available), was sprayed to the leaf disk. After an air drying process, second instar larvae were released thereto. Thereafter, the larvae were left to stand in a thermostatic chamber (16 hours of light period-8 hours of dark period) at 25° C. […] Test in duplicate.
mortality larvae(%)={number of dead larvae/(number of survived larvae+number of dead larvae)}×100

Spodoptera litura = test: Pest control test against Spodoptera litura, cabbage leaf disk foliar spray; details: for mortality at 500 ppm: Spodoptera litura, 72 h, read-out: mortality of larvae; for % Mortality, Test Example2 Spodoptera litura: foliar treatment, 100 ppm
Method: Test Example 2 Pest Control Test Against Spodoptera litura
as §1, with “third” for “second”
(§2) Mortality of larvae(%)={number of dead larvae/(number of survived larvae+number of dead larvae)}×100

[1] = tested on: Frankliniella occidentalis; test: Pest control test of Frankliniella occidentalis, kidney bean leaf disk foliar spray; details: for % Mortality, Test Example7 Frankliniella occidentalis: foliar treatment
Description: Test Example 7 Pest Control Test of Frankliniella occidentalis
as §1, with “2.8” for “5.0”, “kidney bean” for “cabbage”, “first” for “second”
as §2

Laodelphax striatella = test: Pest control test of Laodelphax striatella, soil irrigation treatment of rice seedling; details: for mortality of larvae: soil irrigation, 0.05 mg/seedling, three days after release; for % Mortality, Test Example 10 Laodelphax striatella: soil irrigation treatment
Description: <Soil Irrigation Treatment Test>
Test Example 10 Pest Control Test of Laodelphax striatellua
(§3) A rice seedling in pot culture was subjected to soil irrigation treatment with a drug solution of the compound of the present invention at a predetermined concentration, which had been prepared so as to be a 10% acetone water. Three days after the treatment, ten second instar larvae of Laodelphax striatella were each released thereto. Thereafter, the larvae were left to stand in a thermostatic chamber (16 hours of light period-8 hours of dark period) at 25° C. […] The test was performed in duplicate.
as §2

Nilaparvata lugens = test: Pest control test of Nilaparvata lugens, soil irrigation treatment; details: for mortality of larvae: soil irrigation, 0.05 mg/seedling, three days after release; for % Mortality, Test Example 12 Nilaparvata lugens: soil irrigation treatment
Method: Test Example 12 Pest Control Test of Nilaparvata lugens
as §3, with “Nilaparvata lugens” for “Laodelphax striatella”
as §2

[2] = tested on: imidacloprid susceptible populations of Nilaparvata lugens; test: Soil irrigation test, imidacloprid susceptible populations of Nilaparvata lugens; details: Rate 0.05 mg/pot
Method: as §3, with “Three days after the treatment, ten second instar larvae of Laodelphax striatella were each released thereto.” left out
as §2
Further, for comparison, the test against some population of Nilaparvata lugens which is highly susceptible to imidacloprid was performed by the same method as described above, and the results thereof are shown in Table 43.
(§4) Further, for the origin of test pests, bugs collected outdoors within the Kumamoto prefecture in 2007 as the drug resistant Nilaparvata lugens, and bugs collected within the Kagoshima prefecture and then successively reared indoors for a long time as the imidacloprid susceptible populations of Nilaparvata lugens were used.

Aphis gossypii = test: Pest control test of Aphis gossypii, cucumber leaf disk foliar spray; details: foliar treatment
Method: Test Example 3 Pest Control Test of Aphis gossypii
as §1, with “2.0” for “5.0”, “cucumber” for “cabbage”, “first” for “second”
as §2

[3] = tested on: Trigonotylus caelestialium; test: Pest control test of Trigonotylus caelestialium, wheat seedling dipping
Description: Test Example 8 Pest Control Test of Trigonotylus caelestialium
Wheat seedling leaves and stems four days after the dissemination of seedlings were dipped for 30 seconds in a drug solution of the compound of the present invention at a predetermined concentration, which had been prepared so as to be a 50% acetone water (0.05% Tween20 available). After an air drying process, the wheat seedling leaves and stems were placed into a glass tube, and two second instar larvae of Trigonotylus caelestialium were released to the same glass tube. After the larvae were released, the tube was lidded to leave the larvae to stand in a thermostatic chamber at 25° C. In order to supply water to the wheat during the test, water was given to the wheat from the bottom of the glass tube.
as §2

[4] = tested on: Nilaparvata lugens exhibiting drug resistance to imidacloprid; details: soil irrigation; for Insecticidal effects against Nilaparvata lugens (mortality of larvae %), Drug resistant populations three days after the treatment: Rate 0.05 mg/pot; for insecticidal effects against drug resistant Nilaparvata lugens: imidacloprid-resistant; for mortality of larvae against drug resistant populations compared with susceptible populations of Nilaparvata lugens: imidacloprid-resistant vs susceptible
Method: Test Example 18 Pest Control Test of Drug-Resistant Nilaparvata lugens
as §3, with “Three days after the treatment, ten second instar larvae of Laodelphax striatella were each released thereto.” left out
as §2, §4

Musca domestica = test: Pest control test of Musca domestica adults, sucrose pledget; details: 50 ppm in 40% sucrose liquid; four days after release
Method: Test Example 21 Pest Control Test of Musca domestica
A drug solution of the compound of the present invention, which had been adjusted to be 50 ppm with a 40% sucrose liquid, was adsorbed on a pledget, and the pledget was put into a vial. Two adults reared indoors were released thereto. Thereafter, the adults were left to stand indoors at room temperature of 25° C. […] When two adults were all agonized in death, it was judged to be effective.

SMILES | mortality of larvae (Laodelphax striatella) [%] | mortality of larvae (Nilaparvata lugens) [%] | Insecticidal effects against Nilaparvata lugens (mortality of larvae %), Susceptible populations three days after the treatment [2] [%] | % Mortality, Test Example1 Plutella xylostella (Plutella xylostella; 20 ppm) [%] | % Mortality, Test Example1 Plutella xylostella (Plutella xylostella; 100 ppm) [%] | % Mortality, Test Example2 Spodoptera litura (Spodoptera litura) [%] | % Mortality, Test Example3 Aphis gossypii (Aphis gossypii; 1.25 ppm) [%] | % Mortality, Test Example3 Aphis gossypii (Aphis gossypii; 5 ppm) [%] | % Mortality, Test Example3 Aphis gossypii (Aphis gossypii; 100 ppm) [%] | % Mortality, Test Example7 Frankliniella occidentalis ([1]; 100 ppm) [%] | % Mortality, Test Example8 Trigonotylus caelestialium ([3]; 2 ppm) [%] | % Mortality, Test Example8 Trigonotylus caelestialium ([3]; 10 ppm) [%] | % Mortality, Test Example8 Trigonotylus caelestialium ([3]; 50 ppm) [%] | % Mortality, Test Example 10 Laodelphax striatella (Laodelphax striatella; 0.05 mg/pot) [%] | % Mortality, Test Example 12 Nilaparvata lugens (Nilaparvata lugens; 0.01 mg/pot) [%] | % Mortality, Test Example 12 Nilaparvata lugens (Nilaparvata lugens; 0.05 mg/pot) [%] | Insecticidal effects against Nilaparvata lugens (mortality of larvae %), Drug resistant populations three days after the treatment [4] [%] | insecticidal effects against drug resistant Nilaparvata lugens [4] | mortality of larvae against drug resistant populations compared with susceptible populations of Nilaparvata lugens [4] | activity against adults (effective when two adults were all agonized in death) (Musca domestica) | further results
CCNC(=S)N=c1ccccn1Cc1ccc(Cl)nc1 [Comparative Example 8, 1-[1-((6-chloropyridine-3-yl)methyl)pyridine-2(1H)-ylidene]-3-ethylthiourea, reference compound] | 0 | 15 | 15 | – | – | – | – | – | – | – | – | – | – | – | – | – | – | – | – | – | mortality at 500 ppm (Plutella xylostella; Plutella xylostella, foliar, 72 h, read-out: mortality of larvae): 20%; mortality at 500 ppm (Spodoptera litura; foliar): 10%; mortality at 500 ppm ([1]; Frankliniella occidentalis, foliar, 72 h, read-out: mortality of larvae): 15%
CCOC(=O)NC(=S)/N=c1\ccccn1Cc1ccc(Cl)nc1 [Comparative Example 9, 1-[1-((6-chloropyridine-3-yl)methyl)pyridine-2(1H)-ylidene]-3-ethoxycarbonylthiourea, reference compound] | 0 | 0 | 0 | – | – | – | – | – | – | – | – | – | – | – | – | – | – | – | – | – | mortality at 500 ppm (Spodoptera litura; foliar treatment at 500 ppm, third instar larvae, three days after release): 11%
FC(F)C(=S)N=c1ccccn1Cc1ccc(Cl)nc1 [Compound 1-21] | – | – | 67 | 10 | 80 | 55 | 100 | 100 | 100 | 90 | 67 | 100 | 100 | 100 | 10 | 85 | 50 | high insecticidal effects | equivalent mortality of larvae | all the adults are agonized in death | % Mortality, Test Example3 Aphis gossypii (Aphis gossypii; 0.313 ppm): 55%; % Mortality, Test Example3 Aphis gossypii (Aphis gossypii; 20 ppm): 100%; % Mortality, Test Example7 Frankliniella occidentalis ([1]; 20 ppm): 80%; % Mortality, Test Example 10 Laodelphax striatella (Laodelphax striatella; 0.01 mg/pot): 20%
FC(F)(F)C(F)(F)C(=S)N=c1ccccn1Cc1ccc(Cl)nc1 [Compound 1-23] | – | – | 85 | – | – | – | – | – | – | – | – | – | – | – | – | – | 70 | high insecticidal effects | equivalent mortality of larvae | all the adults are agonized in death | –
Fc1ccc(Cn2ccccc2=NC(=S)C(F)(F)F)cn1 [Compound 3-20] | – | – | 100 | 0 | 55 | 30 | 100 | 100 | 100 | 45 | 50 | 100 | 100 | 90 | 100 | 100 | 100 | high insecticidal effects | equivalent mortality of larvae | all the adults are agonized in death | % Mortality, Test Example3 Aphis gossypii (Aphis gossypii; 0.313 ppm): 15%; % Mortality, Test Example3 Aphis gossypii (Aphis gossypii; 20 ppm): 100%
FC(F)(F)C(=S)N=c1ccccn1Cc1ccc(Br)nc1 [Compound 4-20] | – | – | 95 | 70 | 100 | 20 | 100 | 100 | 100 | 60 | 33 | 100 | 100 | 100 | 96 | 100 | 100 | high insecticidal effects | equivalent mortality of larvae | all the adults are agonized in death | % Mortality, Test Example 10 Laodelphax striatella (Laodelphax striatella; 0.005 mg/pot): 35%; % Mortality, Test Example 10 Laodelphax striatella (Laodelphax striatella; 0.01 mg/pot): 100%
